# Experimental data taken from patent US20060247250A1 (TargeGen, Inc., priority 2005, published 2006).
# Target: T1, human c-Src (Homo sapiens, UniProt P12931)
# T1 construct: purchased Panvera/Invitrogen
# Experiment: Src kinase inhibition, luciferase-based residual ATP (KinaseGlo)
# Assay type: biochemical
# Details: recombinant human c-Src, ATP 3 μM, PTK2 substrate, 90 minutes at room temperature
# Method: The ability of compounds of the present invention to inhibit the activity of three groups of kinases was tested. Kinases tested included the src family (primarily src and yes), the angiogenic growth factors receptors (FGFR1, PDGFRb and VEGFR2) and the ephrin, EphB4. All kinase reactions were conducted in 96-well plates with a final reaction volume of 50 ul.
# Recombinant human c-Src or Yes (28 ng/well, Panvera/Invitrogen, Madison Wis.), ATP (3 μM), a tyrosine kinase substrate (PTK2, 250 μM, Promega Corp., Madison Wis.), and test agents (at concentrations ranging from about 1 nM/l to about 100 μM/1), in the presence of Src kinase reaction buffer (Upstate USA, Lake Placid N.Y.). After reacting for about 90 minutes at room temperature, residual ATP was determined using a luciferase-based assay (KinaseGlo, Promega Corp.) as a measure of kinase activity. Data from four wells were then averaged and used to determine IC50 values for the test compounds (Prism software package, GraphPad Software, San Diego Calif.).
# T1 sequence (P12931 whole entry): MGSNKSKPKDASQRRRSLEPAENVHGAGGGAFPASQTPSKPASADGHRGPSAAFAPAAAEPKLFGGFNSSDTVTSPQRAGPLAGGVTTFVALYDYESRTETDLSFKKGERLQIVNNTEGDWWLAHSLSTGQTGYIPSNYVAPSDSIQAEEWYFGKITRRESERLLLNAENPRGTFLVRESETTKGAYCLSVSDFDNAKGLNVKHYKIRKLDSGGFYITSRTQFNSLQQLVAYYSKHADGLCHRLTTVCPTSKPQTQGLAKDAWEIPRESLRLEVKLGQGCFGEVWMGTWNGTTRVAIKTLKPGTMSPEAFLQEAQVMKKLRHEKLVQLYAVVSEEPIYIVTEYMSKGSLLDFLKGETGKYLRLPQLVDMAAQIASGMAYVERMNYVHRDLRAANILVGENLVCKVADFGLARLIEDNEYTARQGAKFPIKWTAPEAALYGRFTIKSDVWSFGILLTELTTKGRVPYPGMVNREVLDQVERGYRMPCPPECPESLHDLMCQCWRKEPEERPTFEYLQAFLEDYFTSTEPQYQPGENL
row,IC50,SMILES
1,85 nM,O=C(NCCN1CCCC1)c1ccc(Nc2ncc(NC(=O)c3ccc(O)cc3Cl)cn2)cc1
2,338 nM,"Cc1c(O)cccc1C(=O)Nc1cnc(Nc2ccc(S(=O)(=O)CCCN3CCCC3)cc2)nc1 [XXXIII, 3-Hydroxy-2-methyl-N-{2-[4-(3-pyrrolidin-1-yl-propane-1-sulfonyl)-phenylamino]-pyrimidin-5-yl}-benzamide]"
3,286 nM,"CC(C)N(CCO)C(=O)c1ccc(Nc2ncc(NC(=O)c3c(Cl)cccc3Cl)cn2)cc1 [XXI, 2,6-Dichloro-N-(2-{4-[(2-hydroxy-ethyl)-isopropyl-carbamoyl]-phenylamino}-pyrimidin-5-yl)-benzamide]"
4,300 nM,"O=C(Nc1cnc(Nc2cccnc2)nc1)c1c(Cl)cccc1Cl [X, 2,6-Dichloro-N-[2-(pyridin-3-ylamino)-pyrimidin-5-yl]-benzamide]"
5,20 nM,"O=C(NCCN1CCCC1)c1csc(Nc2ncc(NC(=O)c3cc(O)ccc3Cl)cn2)n1 [XVIII, 2-[5-(2-Chloro-5-hydroxy-benzoylamino)-pyrimidin-2-ylamino]-thiazole-4-carboxylic acid (2-pyrrolidin-1-yl-ethyl)-amide]"
6,550 nM,"Cc1c(O)cccc1C(=O)Nc1cnc(Nc2ccc(C(=O)N3CCN(C)CC3)cc2)nc1 [XVII, 2-Methyl-3-hydroxy-N-{2-[4-(4-methyl-piperazine-1-carbonyl)-phenylamino]-pyrimidin-5-yl}-benzamide]"
7,60 nM,"O=C(NCCN1CCCC1)c1ccc(Nc2ncc(NC(=O)c3c(Cl)cccc3Cl)cn2)cc1 [XXVIII, 2,6-Dichloro-N-{2-[4-(2-pyrrolidin-1-yl-ethylcarbamoyl)-phenylamino]-pyrimidin-5-yl}-benzamide]"
8,223 nM,"Cc1cccc(C)c1C(=O)Nc1cnc(Nc2ccc(C(=O)N3CCN(C)CC3)cc2)nc1 [XV, 2,6-Dimethyl-N-{2-[4-(4-methyl-piperazine-1-carbonyl)-phenylamino]-pyrimidin-5-yl}-benzamide]"
9,19 nM,"CC(C)N(CCO)C(=O)c1cccc(Nc2ncc(NC(=O)c3cc(O)ccc3Cl)cn2)c1 [XX, 2-Chloro-5-hydroxy-N-(2-{3-[(2-hydroxy-ethyl)-isopropyl-carbamoyl]-phenylamino}-pyrimidin-5-yl)-benzamide]"
10,21 nM,"O=C(Nc1cnc(Nc2cccc(OCCN3CCCC3)c2)nc1)c1cc(O)ccc1Cl [XLII, N-(2-(3-(2-(Pyrrolidin-1-yl)ethoxy)phenylamino)pyrimidin-5-yl)-2-chloro-5-hydroxybenzamide]"
11,25 nM,"CC(C)N(CCO)C(=O)c1cccc(Nc2ncc(NC(=O)c3c(Cl)cccc3Cl)cn2)c1 [XIX, 2,6-Dichloro-N-(2-{3-[(2-hydroxy-ethyl)-isopropyl-carbamoyl]-phenylamino}-pyrimidin-5-yl)-benzamide]"
12,13 nM,"O=C(NCCN1CCCC1)c1ccc(Nc2ncc(NC(=O)c3cc(O)ccc3Cl)cn2)cn1 [IX, 5-[5-(2-Chloro-5-hydroxy-benzoylamino)-pyrimidin-2-ylamino]-Pyridine-2-carboxylic acid (2-pyrrolidin-1-yl-ethyl)-amide]"
13,38 nM,"O=C(Nc1cnc(Nc2ccc(S(=O)(=O)N3CCNCC3)cc2)nc1)c1cc(O)ccc1Cl [XLVII, 2-Chloro-5-hydroxy-N-{2-[4-(piperazine-1-sulfonyl)-phenylamino]-Pyrimidin-5-yl}-benzamide]"
14,8.5 nM,"O=C(NCCN1CCCC1)c1ccc(Nc2ncc(NC(=O)c3cc(O)ccc3Cl)cn2)cc1 [XXV, 2-Chloro-5-hydroxy-N-{2-[4-(2-pyrrolidin-1-yl-ethylcarbamoyl)-phenylamino]-pyrimidin-5-yl}-benzamide]"
15,2100 nM,"CN(CCN1CCCC1)S(=O)(=O)c1ccc(Nc2ncc(NC(=O)c3c(Cl)cccc3Cl)cn2)cc1 [IV, 2,6-Dichloro-N-(2-[4-[methyl-(2-pyrrolidin-1-yl-ethyl)-sulfamoyl]-phenylamino]-pyrimidin-5-yl)-benzamide]"
16,94 nM,"CN1CCN(C(=O)c2ccc(Nc3ncc(NC(=O)c4c(Cl)cccc4Cl)cn3)cc2)CC1 [XIV, 2,6-Dichloro-N-{2-[4-(4-methyl-piperazine-1-carbonyl)-phenylamino]-pyrimidin-5-yl}-benzamide]"
17,667 nM,"CN1CCN(S(=O)(=O)c2ccc(Nc3ncc(NC(=O)c4c(Cl)cccc4Cl)cn3)cc2)CC1 [V, 2,6-Dichloro-N-{2-[4-(4-methyl-piperazine-1-sulfonyl)-phenylamino]-pyrimidin-5-yl}-benzamide]"
18,462 nM,"O=C(Nc1cnc(Nc2ccc(S(=O)(=O)CCCN3CCCC3)cc2)nc1)c1ccc(O)cc1Cl [XXXV, 2-Chloro-4-hydroxy-N-{2-[4-(3-pyrrolidin-1-yl-propane-1-sulfonyl)-phenylamino]-pyrimidin-5-yl}-benzamide]"

row,IC50,SMILES
1,104 nM,"Cc1cccc(C)c1C(=O)Nc1cnc(Nc2ccc(OCCN3CCCC3)cc2)nc1 [XXXIX, N-(2-(4-(2-(Pyrrolidin-1-yl)ethoxy)phenylamino)pyrimidin-5-yl)-2,6-dimethyl-benzamide]"
2,183 nM,"Cc1cccc(C)c1C(=O)Nc1cnc(Nc2ccc(C(=O)N3CCNCC3)cc2)nc1 [L, 2,6-Dimethyl-N-{2-[4-(piperazine-1-carbonyl)-phenylamino]-pyrimidin-5-yl}-benzamide]"
3,119 nM,"O=C(Nc1cnc(Nc2ccc(S(=O)(=O)CCCN3CCCC3)cc2)nc1)c1c(Cl)cccc1Cl [XXXIV, 2,6-Dichloro-N-{2-[4-(3-pyrrolidin-1-yl-pronane-1-sulfonyl)-phenylamino]-pyrimidin-5-yl}-benzamide]"
4,288 nM,"Cc1cccc(C)c1C(=O)Nc1cnc(Nc2cccc(S(=O)(=O)NCCN(C)C)c2)nc1 [I, N-{2-[3-(2-Dimethylamino-ethylsulfamoyl)-phenylamino]-Pyrimidin-5-yl}-2,6-dimethyl-benzamide]"
5,216 nM,"Cc1c(O)cccc1C(=O)Nc1cnc(Nc2ccc(C(=O)NCCN3CCCC3)cc2)nc1 [XXVII, 3-Hydroxy-2-methyl-N-{2-[4-(2-pyrrolidin-1-yl-ethylcarbamoyl)-phenylamino]-pyrimidin-5-yl}-benzamide]"
6,54 nM,"O=C(Nc1cnc(Nc2ccc(N3CCN(CCO)CC3)nc2)nc1)c1c(Cl)cccc1Cl [XLIX, 2,6-Dichloro-N-(2-{6-[4-(2-hydroxy-ethyl)-piperazin-1-yl]-pyridin-3-ylamino}-pyrimidin-5-yl)-benzamide]"
7,25 nM,"O=C(Nc1cnc(Nc2cccc(OCCN3CCCC3)c2)nc1)c1c(Cl)cccc1Cl [XLIV, N-(2-(3-(2-(Pyrrolidin-1-yl)ethoxy)phenylamino)pyrimidin-5-yl)-2,6-dichlorobenzamide]"
8,8000 nM,"COc1ccc(Cl)c(C(=O)Nc2cnc(Nc3ccc(S(=O)(=O)CCCN4CCCC4)cc3)nc2)c1 [Compound 53, 2-Chloro-5-methoxy-N-{2-[4-(3-pyrrolidin-1-yl-propane-1-sulfonyl)-phenylamino]-pyrimidin-5-yl}-benzamide]"
9,99 nM,"Cc1cccc(C)c1C(=O)Nc1cnc(Nc2cccc(OCCN3CCCC3)c2)nc1 [XLIII, N-(2-(3-(2-(Pyrrolidin-1-yl)ethoxy)phenylamino)pyrimidin-5-yl)-2,6-dimethylbenzamide]"
10,400 nM,"O=C(Nc1cnc(Nc2ccc(C(=O)N3CCN(CCO)CC3)nc2)nc1)c1c(Cl)cccc1Cl [II, 2,6-Dichloro-N-(2-{6-[4-(2-hydroxy-ethyl)-piperazine-1-carbonyl]-pyridin-3-ylamino}-pyrimidin-5-yl)-benzamide]"
11,1490 nM,"O=C(Nc1cnc(Nc2ccc(S(=O)(=O)CCCN3CCCC3)cc2)nc1)c1cccc(O)c1 [XXXVI, 3-Hydroxy-N-{2-[4-(3-pyrrolidin-1-yl-propane-1-sulfonyl)-phenylamino]-pyrimidin-5-yl}-benzamide]"
12,12 nM,"O=C(Nc1cnc(Nc2ccc(C(=O)N3CCNCC3)cc2)nc1)c1cc(O)ccc1Cl [LI, 2-Chloro-5-hydroxy-N-{2-[4-(piperazine-1-carbonyl)-phenylamino]-Pyrimidin-5-yl}-benzamide]"
13,9.8 nM,"O=C(Nc1cnc(Nc2ccc(S(=O)(=O)CCCN3CCCC3)cc2)nc1)c1cc(O)ccc1Cl [XXXII, 2-Chloro-5-hydroxy-N-{2-[4-(3-pyrrolidin-1-yl-propane-1-sulfonyl)-phenylamino]-pyrimidin-5-yl}-benzamide]"
14,129 nM,"O=C(NCCN1CCCC1)c1ccc(Nc2ncc(NC(=O)c3c(Cl)cccc3Cl)cn2)cn1 [VIII, 5-[5-(2,6-Dichloro-benzoylamino)-pyrimidin-2-ylamino]-pyridine-2-carboxylic acid (2-pyrrolidin-1-yl-ethyl)-amide]"
15,27 nM,"O=C(Nc1cnc(Nc2ccc(OCCN3CCCC3)cc2)nc1)c1cc(O)ccc1Cl [XXXVIII, N-(2-(4-(2-(Pyrrolidin-1-yl)ethoxy)phenylamino)pyrimidin-5-yl)-2-chloro-5-hydroxybenzamide]"
16,53 nM,"O=C(Nc1cnc(Nc2ccc(C(=O)N3CCN(CCO)CC3)nc2)nc1)c1cc(O)ccc1Cl [XLVIII, 2-Chloro-5-hydroxy-N-(2-{6-[4-(2-hydroxy-ethyl)-piperazine-1-carbonyl]-pyridin-3-ylamino}-pyrimidin-5-yl)-benzamide]"
17,13 nM,"O=C(NCCN1CCCC1)c1ccc(Nc2ncc(NC(=O)c3cc(O)ccc3Br)cn2)cc1 [XXIII, 2-Bromo-5-hydroxy-N-{2-[4-(2-pyrrolidin-1-yl-ethylcarbamoyl)-phenylamino]-pyrimidin-5-yl}-benzamide]"
18,> 10000 nM,"N#Cc1cccc(C(=O)Nc2cnc(Nc3ccc(S(=O)(=O)CCCN4CCCC4)cc3)nc2)c1 [XXXI, 3-Cyano-N-{2-[4-(3-pyrrolidin-1-yl-propane-1-sulfonyl)-phenylamino]-pyrimidin-5-yl}-benzamide]"
